Reference: a flash point compilation (Sun et al. 2020)
Structures can show the parent of a compound that is named as a salt.

| Structure (SMILES) | flash point [°C] |
| --- | --- |
| ClCC(Cl)CCl [1,2,3-Trichloropropane] | 82.00 |
| Clc1ccc(Cl)c(Cl)c1 [1,2,4-Trichlorobenzene] | 99.00 |
| CC(O)CCO (centres undefined) [1,3-Butylene glycol] | 121.00 |
| ClCCCCl [1,3-Dichloropropane] | 35.00 |
| NCCCN [1,3-Propanediamine] | 24.00 |
| ClCCCCCl [1,4-Dichlorobutane] | 52.00 |
| OCCCCCO [1,5-Pentanediol] | 135.00 |
| CC(O)C(C)O (centres undefined) [2,3-Butylene glycol] | 85.00 |
| CC(C)=CC(C)(C)C [2,4,4-Trimethyl-2-pentene] | 2.00 |
| CC(=O)CC(C)=O [2,4-Pentanedione] | 41.00 |
| Nc1cc(Cl)ccc1Cl [2,5-Dichloroaniline] | 166.00 |
| CCC(C=O)CC [2-Ethyl butyraldehyde] | 21.00 |
| CCCC=C(C=O)CC [2-Ethyl-3-propyl acrolein] | 68.00 |
| Oc1ccc2ccccc2c1 [2-Naphthol] | 153.00 |
| CC(C)[N+](=O)[O-] [2-Nitropropane] | 39.00 |
| CC=O [Acetaldehyde] | -38.00 |
| CC(=O)O [Acetic acid] | 43.00 |
| CC(=O)OC(C)=O [Acetic anhydride] | 54.00 |
| CC(C)=O [Acetone] | -18.00 |
| O=C(O)CCCCC(=O)O [Adipic acid] | 191.00 |
| N#CCCCCC#N [Adiponitrile] | 93.00 |
| C=CCBr [Allyl bromide] | -1.00 |

| Structure (SMILES) | flash point [°C] |
| --- | --- |
| COc1ccccc1 [Anisole] | 52.00 |
| c1ccc2cc3ccccc3cc2c1 [Anthracene] | 121.00 |
| O=C1c2ccccc2C(=O)c2ccccc21 [Anthraquinone] | 185.00 |
| O=Cc1ccccc1 [Benzaldehyde] | 64.00 |
| c1ccccc1 [Benzene] | -11.00 |
| O=C(O)c1ccccc1 [Benzoic acid] | 121.00 |
| FC(F)(F)c1ccccc1 [Benzotrifluoride] | 12.00 |
| CC(=O)OCc1ccccc1 [Benzyl acetate] | 102.00 |
| OCc1ccccc1 [Benzyl alcohol] | 101.00 |
| O=C(OCc1ccccc1)c1ccccc1 [Benzyl benzoate] | 148.00 |
| ClCc1ccccc1 [Benzyl chloride] | 67.00 |
| SCc1ccccc1 [Benzyl mercaptan] | 70.00 |
| C1CCC(C2CCCCC2)CC1 [Bicyclohexyl] | 74.00 |
| C=COCCCC [Butyl vinyl ether] | -9.00 |
| CC12CCC(CC1=O)C2(C)C (centres undefined) [Camphor] | 66.00 |
| Clc1ccccc1 [Chlorobenzene] | 29.00 |
| FC(F)=C(F)Cl [Chlorotrifluoroethylene] | -27.00 |
| O=CC=Cc1ccccc1 [Cinnamaldehyde] | 49.00 |
| NC1CCCCC1 [Cyclohexylamine] | 32.00 |
| c1ccc(C2CCCCC2)cc1 [Cyclohexylbenzene] | 99.00 |
| C1CCCC1 [Cyclopentane] | -7.00 |

remark: another data set of the same source

| Structure (SMILES) | flash point [°C] |
| --- | --- |
| CCC(Cl)Cl [1,1-dichloropropane] | 7 |
| ClCCCCl [1,3-dichloropropane] | 32 |
| ClCCCCCl [1,4-dichlorobutane] | 40 |
| ClCCCCCCl [1,5-dichloropentane] | 26 |
| CCCCCl [1-chlorobutane] | -12 |
| CCCCCCCl [1-chlorohexane] | 26 |
| CCCCCCCCCl [1-chlorooctane] | 63 |
| COCC(C)O (centres undefined) [1-methoxy-2-propanol] | 38 |
| C=CCCCCCCCCCCCC [1-tetradecene] | 110 |
| CCCC(C)C [2-methylpentane] | -32 |
| COCCCN [3-methoxypropylamine] | 32 |
| CN(C)C1CCCCC1 [N,N-dimethylcyclohexylamine] | 39 |
| CC#N [acetonitrile] | 13 |
| C1=CCCC1 [cyclopentene] | -0 |
| CCCCOCCOCCOCCCC [diethylene glycol dibutyl ether] | 117 |
| CC(C)CC(=O)CC(C)C [diisobutyl ketone] | 49 |
| COC [dimethylether] | -83 |
| CS(C)=O [dimethylsulfoxide] | 88 |
| CCCCCOCCCCC [dipentylether] | 57 |
| c1ccc(Cc2ccccc2)cc1 [diphenylmethane] | 127 |
| CCCCCCCCCCCCCCCCCCCC [eicosane] | 169 |

| Structure (SMILES) | flash point [°C] |
| --- | --- |
| CC=O [ethanal] | -39 |
| CCS [ethanethiol] | -48 |
| CC(=O)O [ethanoic acid] | 39 |
| C=CC(=O)OCC [ethyl acrylate] | 9 |
| CCCC(=O)OCC [ethyl butyrate] | 19 |
| CCOC(=O)C(C)C [ethyl isobutyrate] | 13 |
| C=COCC [ethyl vinyl ether] | -45 |
| CCN [ethylamine] | -17 |
| Fc1ccccc1 [fluorobenzene] | -15 |
| OCc1ccco1 [furfuryl alcohol] | 65 |
| CCCCCCC=O [heptanal] | 41 |
| CCCCCCC#N [heptanenitrile] | 58 |
| C1CCCNCC1 [hexamethyleneimine] | 18 |
| CCCCCC=O [hexanal] | 25 |
| CC(C)COC=O [isobutyl formate] | 10 |
| CC(C)C=O [isobutyraldehyde] | -24 |
| CC(C)C(=O)O [isobutyric acid] | 55 |
| CC(=O)OCCC(C)C [isopentyl acetate] | 25 |
| CC1=CC(=O)CC(C)(C)C1 [isophorone] | 84 |
| CC(=O)OC(C)C [isopropyl acetate] | 2 |
| CC(C)OC(C)C [isopropyl ether] | -29 |

| Structure (SMILES) | flash point [°C] |
| --- | --- |
| CC(C)C1CCCCC1 [isopropylcyclohexane] | 35 |
| Clc1cccc(Cl)c1 [m-dichlorobenzene] | 63 |
| CC(=O)C=C(C)C [mesityl oxide] | 25 |
| Cc1cc(C)cc(C)c1 [mesitylene] | 50 |
| C=C(C)C#N [methacrylonitrile] | 1 |
| COC(=O)c1ccccc1 [methyl benzoate] | 83 |
| CN=C=S [methyl isothiocyanate] | 32 |
| COC(=O)c1ccccc1O [methyl salicylate] | 96 |
| CCC(C)OC (centres undefined) [methyl sec-butyl ether] | -30 |
| CCC(C)(C)OC [methyl tert-pentyl ether] | -11 |
| CN [methylamine] | -62 |
| CN(CCO)CCO [methyldiethanolamine] | 138 |
| C=C1CCCCC1 [methylenecyclohexane] | -6 |
| CCCCOC(C)=O [n-butyl acetate] | 22 |
| CCCCON=O [n-butyl nitrite] | -13 |
| CCCC(=O)O [n-butyric acid] | 69 |
| CCCC#N [n-butyronitrile] | 16 |
| CCCCCCCCCC [n-decane] | 51 |
| CCCOCCC [n-propyl ether] | -28 |
| CCCCCCCC#N [octanenitrile] | 73 |
| CCCCCCCC(=O)Cl [octanoyl chloride] | 82 |

| Structure (SMILES) | flash point [°C] |
| --- | --- |
| CCCCCCCCN [octylamine] | 60 |
| Clc1ccc(Cl)cc1 [p-dichlorobenzene] | 66 |
| CCCCCc1ccccc1 [pentylbenzene] | 65 |
| O=C1OC(=O)c2ccccc21 [phthalic anhydride] | 152 |
| C1CCNCC1.Cl [piperidine hydrochloride] | 65 |
| CCC=O [propionaldehyde] | -40 |
| CCCOC(=O)CCC [propyl butyrate] | 37 |
| CCCOC=O [propyl formate] | -0 |
| c1cncnc1 [pyrimidine] | 31 |
| CCC(C)O (centres undefined) [sec-butanol] | 26 |
| CCC(C)OC(C)=O (centres undefined) [sec-butyl acetate] | 16 |
| CC(=O)CC(=O)OC(C)(C)C [t-butyl acetoacetate] | 60 |
| CC(C)(C)c1ccccc1 [t-butylbenzene] | 60 |
| CC(C)(C)C1CCCCC1 [t-butylcyclohexane] | 42 |
| CCC(C)(C)O.CCC(C)(C)O [tert-amyl alcohol (2-methyl-2-butanol)] | 20 |
| CCCCN(CCCC)CCCC [tributylamine] | 72 |
| CCOC(OCC)OCC [triethoxymethane] | 30 |
| COC(OC)OC [trimethoxymethane] | 15 |
| CCCCC#N [valeronitrile] | 40 |

remark: another data set of the same source

| Structure (SMILES) | flash point [°C] |
| --- | --- |
| ClCCCCl [1,3-dichloropropane] | 21 |
| ClCCCCCl [1,4-dichlorobutane] | 43 |
| ClCCCCCCl [1,5-dichloropentane] | 63 |
| COCC(C)O (centres undefined) [1-methoxy-2-propanol] | 31 |
| C=CCCCCCCCCCCCC [1-tetradecene] | 97 |
| COCCCN [3-methoxypropylamine] | 23 |
| CN(C)C1CCCCC1 [N,N-dimethylcyclohexylamine] | 41 |
| C1=CCCC1 [cyclopentene] | -30 |
| C=C1CCCCC1 [methylenecyclohexane] | -2 |

remark: another data set of the same source

| Structure (SMILES) | flash point [°C] |
| --- | --- |
| CCC(Cl)Cl [1,1-dichloropropane] | 21.00 |
| CCCCCl [1-chlorobutane] | -7.00 |
| CCCCCCCl [1-chlorohexane] | 35.00 |
| CCCCCCCCCl [1-chlorooctane] | 70.00 |
| CCCC(C)C [2-methylpentane] | -29.00 |
| CC#N [acetonitrile] | 6.00 |
| CCCCCCC=O [heptanal] | 35.00 |
| CCCCCC=O [hexanal] | 32.00 |
| CCCCCCCC(=O)Cl [octanoyl chloride] | 81.00 |
| CCCOC=O [propyl formate] | -3.00 |
